Laboratory results from patent US20240270809A1, “ORAL GLP RECEPTOR AGONISTS” (priority 2020, published 2024).
Positions of bridges follow the written chain, without caps; N, C: chain ends. Non-standard residues stand in square brackets, D forms with d. Residues, ends and D or L forms follow the SMILES beside them. Nle = CCCC[C@H](N)C(=O)O; Aib = CC(C)(N)C(=O)O

Legend:
human GLP2 receptor = molecular target: T1, human GLP2 receptor (Homo sapiens, UniProt O95838); test: cAMP accumulation assay, functional agonism of human GLP2 receptor; format: cell-based; conditions: HEK cells infected with human GLP2 receptor BacMam virus, HTRF cAMP; for Emax: HEK293, read-out: Human GLP-2R agonist cAMP Emax; for EC50: read-out: Human GLP-2R agonist cAMP pEC50 (converted)
T1 construct: expressed in transfected cells; host or cells: HEK cells, BacMam virus transduction
T1 sequence (O95838 1-553): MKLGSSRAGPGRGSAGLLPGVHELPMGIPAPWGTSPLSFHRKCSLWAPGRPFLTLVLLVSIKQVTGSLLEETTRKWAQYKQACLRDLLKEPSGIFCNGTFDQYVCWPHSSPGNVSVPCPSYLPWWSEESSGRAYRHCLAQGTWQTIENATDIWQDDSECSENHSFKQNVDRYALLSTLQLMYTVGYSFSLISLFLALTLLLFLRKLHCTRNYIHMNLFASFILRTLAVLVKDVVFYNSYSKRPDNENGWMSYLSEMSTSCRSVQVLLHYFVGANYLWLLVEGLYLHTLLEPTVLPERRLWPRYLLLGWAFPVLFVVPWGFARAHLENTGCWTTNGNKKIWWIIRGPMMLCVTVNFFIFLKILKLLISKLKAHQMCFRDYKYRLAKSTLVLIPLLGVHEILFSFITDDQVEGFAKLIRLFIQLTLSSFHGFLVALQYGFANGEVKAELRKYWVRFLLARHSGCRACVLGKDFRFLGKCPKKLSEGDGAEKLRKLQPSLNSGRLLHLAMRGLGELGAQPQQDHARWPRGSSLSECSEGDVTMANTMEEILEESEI
Procedure, shortened: (§1)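 Agonist-driven cAMP production was quantified by homogeneous time-resolved fluorescence. Receptor expression in HEK cells came from a 24-hour BacMam infection, and cells were frozen ahead of the assay. Incubation lasted 45 min at 37° C in HBSS supplemented with 0.5 mM IBMX.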

human GLP1 receptor = molecular target: T2, human GLP1 receptor (Homo sapiens, UniProt P43220); test: cAMP accumulation assay, functional agonism of human GLP1 receptor; format: cell-based; conditions: HEK cells infected with human GLP1 receptor BacMam virus, HTRF cAMP; for Emax: HEK293, read-out: Human GLP-1R agonist cAMP Emax; for EC50: read-out: Human GLP-1R agonist cAMP pEC50 (converted)
T2 construct: expressed in transfected cells; host or cells: HEK cells, BacMam virus transduction
Procedure, shortened: as §1

T2 sequence (P43220 24-463): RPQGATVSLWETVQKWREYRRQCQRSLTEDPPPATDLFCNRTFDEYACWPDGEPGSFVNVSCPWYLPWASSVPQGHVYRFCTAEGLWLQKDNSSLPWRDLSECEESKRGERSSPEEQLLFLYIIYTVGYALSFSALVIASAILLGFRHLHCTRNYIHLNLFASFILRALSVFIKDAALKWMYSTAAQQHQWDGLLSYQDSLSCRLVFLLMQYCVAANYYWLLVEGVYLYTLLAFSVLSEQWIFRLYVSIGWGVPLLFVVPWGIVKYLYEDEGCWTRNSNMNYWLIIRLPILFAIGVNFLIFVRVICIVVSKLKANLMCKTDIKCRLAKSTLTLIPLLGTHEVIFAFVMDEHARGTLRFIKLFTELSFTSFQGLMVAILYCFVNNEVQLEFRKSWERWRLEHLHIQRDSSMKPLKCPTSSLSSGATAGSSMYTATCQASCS

Emax (human GLP2 receptor)	EC50 (human GLP2 receptor)	Emax (human GLP1 receptor)	EC50 (human GLP1 receptor)	Compound
100%	5.01 pM	96%	794 pM	CCCC[C@H](NC(=O)[C@H](CCC(=O)O)NC(=O)[C@H](CC(=O)O)NC(=O)[C@H](CO)NC(=O)[C@H](Cc1ccccc1)NC(=O)[C@H](CO)NC(=O)CNC(=O)[C@H](CC(=O)O)NC(=O)C(C)(C)NC(=O)[C@@H](N)Cc1c[nH]cn1)C(=O)N[C@H](Cc1ccccc1)C(=O)N[C@H](C(=O)N[C@H](C(=O)N[C@@H](CC(C)C)C(=O)N[C@@H](CC(=O)O)C(=O)N[C@@H](CC(C)C)C(=O)N[C@@H](CCCCN)C(=O)N[C@@H](C)C(=O)N[C@@H](C)C(=O)N[C@@H](CCCCN)C(=O)N[C@@H](CC(=O)O)C(=O)N[C@@H](Cc1ccccc1)C(=O)N[C@H](C(=O)N[C@H]1CCCCNC(=O)C[C@@H](C(=O)N[C@H](C(=O)N[C@@H](CCCCN)C(=O)N[C@H](C(=O)N[C@H](C(=O)N[C@@H](CC(=O)O)C(N)=O)[C@@H](C)O)[C@@H](C)CC)[C@@H](C)O)NC(=O)[C@H]([C@@H](C)CC)NC(=O)[C@H](CC(C)C)NC(=O)[C@H](Cc2c[nH]c3ccccc23)NC1=O)[C@@H](C)CC)[C@@H](C)CC)[C@@H](C)O [Example 100] (H-H[Aib]DGSFSDE[Nle][dF]TILDLKAAKDFIKWLIDTKITD-NH2; lactam 24-28; N-terminus and C-terminus assumed)
101%	31.6 pM	96.7%	12600 pM	CCCC[C@H](NC(=O)[C@H](CCC(=O)O)NC(=O)[C@H](CC(=O)O)NC(=O)[C@H](CO)NC(=O)[C@H](Cc1ccccc1)NC(=O)[C@H](CO)NC(=O)CNC(=O)[C@H](CC(=O)O)NC(=O)C(C)(C)NC(=O)[C@@H](N)Cc1c[nH]cn1)C(=O)N[C@H](Cc1ccccc1)C(=O)N[C@H](C(=O)N[C@H](C(=O)N[C@@H](CC(C)C)C(=O)N[C@@H](CC(=O)O)C(=O)N[C@@H](CC(C)C)C(=O)N[C@@H](CCCCN)C(=O)N[C@@H](C)C(=O)N[C@@H](C)C(=O)N[C@@H](CCCCN)C(=O)N[C@@H](CC(=O)O)C(=O)N[C@@H](Cc1ccccc1)C(=O)N[C@H](C(=O)N[C@@H](CC(N)=O)C(=O)N[C@@H](Cc1c[nH]c2ccccc12)C(=O)N[C@@H](CC(C)C)C(=O)N[C@H](C(=O)N[C@@H](CCC(N)=O)C(=O)N[C@H](C(=O)N[C@H]1CCCCNC(=O)CC[C@@H](C(N)=O)NC(=O)[C@H]([C@@H](C)O)NC(=O)[C@H]([C@@H](C)CC)NC1=O)[C@@H](C)O)[C@@H](C)CC)[C@@H](C)CC)[C@@H](C)CC)[C@@H](C)O [Example 101] (H-H[Aib]DGSFSDE[Nle][dF]TILDLKAAKDFINWLIQTKITE-NH2; lactam 30-33 (inferred); C-terminus assumed)
100%	1.58 pM	97%	2000 pM	CCCC[C@H](NC(=O)[C@H](CCC(=O)O)NC(=O)[C@H](CC(=O)O)NC(=O)[C@H](CO)NC(=O)[C@H](Cc1ccccc1)NC(=O)[C@H](CO)NC(=O)CNC(=O)[C@H](CC(=O)O)NC(=O)C(C)(C)NC(=O)[C@@H](N)Cc1c[nH]cn1)C(=O)N[C@H](Cc1ccccc1)C(=O)N[C@H](C(=O)N[C@H](C(=O)N[C@@H](CC(C)C)C(=O)N[C@@H](CC(=O)O)C(=O)N[C@H]1CCCCNC(=O)C[C@@H](C(=O)N[C@@H](CC(=O)O)C(=O)N[C@@H](Cc2ccccc2)C(=O)N[C@H](C(=O)N[C@@H](CC(N)=O)C(=O)N[C@@H](Cc2c[nH]c3ccccc23)C(=O)N[C@@H](CC(C)C)C(=O)N[C@H](C(=O)N[C@@H](CCC(N)=O)C(=O)N[C@H](C(=O)N[C@@H](CCCCN)C(=O)N[C@H](C(=O)N[C@H](C(=O)N[C@@H](CC(=O)O)C(N)=O)[C@@H](C)O)[C@@H](C)CC)[C@@H](C)O)[C@@H](C)CC)[C@@H](C)CC)NC(=O)[C@H](C)NC(=O)[C@H](C)NC(=O)[C@H](CCCCN)NC1=O)[C@@H](C)CC)[C@@H](C)O [Example 103] (H-H[Aib]DGSFSDE[Nle][dF]TILDKKAADDFINWLIQTKITD-NH2; lactam 16-20)
